Laboratory results: patent US20260232619A1, “TREATMENT OF NEUROLOGICAL DISORDERS WITH ALLICIN AND ANALOGUES THEREOF” (KATHOLIEKE UNIVERSITEIT LEUVEN, priority 2023, published 2026)
Entries after “also recorded” stand apart in the source; their conditions may differ.

Experiments:
scn1lab−/− larvae [1] = assay: Non-invasive local field potential (LFP) recordings in zebrafish scn1lab−/− mutant model of Dravet syndrome; type: in vivo, zebrafish (Danio rerio)
Procedure: (§1) FIG. 2. […] (A) Anti-seizure treatment schedule: 3 dpf scn1lab−/− larvae were exposed to the MTC of allicin or VHC control. 2 days later, abnormal locomotor behavior and epileptiform brain activity of treated larvae was analyzed using an automated tracking device (Noldus) and local field potential recordings, respectively. (B) The normalized cumulative duration of activity (%) is represented as mean±SEM. According to the treatment schedule depicted in panel A, anti-seizure effect of allicin was examined in scnLab−/− larvae at 5 dpf (n=22), and compared to VHC treated scnLab−/− larvae (n=24). VHC treated scn1Lab+/+ larvae (n=24) were included as control. (C) The average number of epileptiform events per 10-minute recording is represented as mean±SEM. Treatment schedule depicted in panel A was followed. Accordingly, electrophysiological effect of allicin was examined in scnLab−/− larvae at 5 dpf (n=15), and compared to VHC treated scnLab−/− larvae (n=15). VHC treated scn1Lab+/+ larvae (n=8) were included as control (D) Early treatment schedule: 1 dpf scn1lab−/− larvae were dechorionated and exposed to the MTC of allicin or VHC control. 2 days later, swimming medium of the larvae was replenished with identical concentrations of allicin or VHC, respectively. At 5 dpf, abnormal locomotor behavior and epileptiform brain activity of treated larvae was analyzed using an automated tracking device (Noldus) and local field potential recordings, respectively. (continued on page 6)(continued from page 5) (E) The normalized cumulative duration of activity (%) is represented as mean±SEM. […] At 5 dpf, abnormal locomotor behavior and epileptiform brain activity of treated larvae was analyzed using an automated tracking device (Noldus) and local field potential recordings, respectively. […]
(§2) The mutant larval fish typically develop signs of epilepsy (hyperlocomotor activity, abnormal brain electrical discharges as assessed by Local Field Potential (LFP) measurements) at 4-5 dpf (days post-fertilization). […]

scn1lab−/− larvae [2] = assay: Locomotor activity assessment in zebrafish scn1lab−/− mutant model of Dravet syndrome; type: in vivo, zebrafish (Danio rerio)
Procedure: as §1, §2

SMILES: C=CCS[S@@+]([O-])CC=C (racemic) [allicin, S-(Prop-2-en-1-yl) prop-2-ene-1-sulfinothioate]
- epileptiform brain activity compared to VHC treated controls (scn1lab−/− larvae [1]; anti-seizure treatment schedule: allicin at MTC from 3 dpf onwards (after seizure onset), LFP at 5 dpf (FIG. 2C)): did not demonstrate significant decreases; also recorded: rescue effect is not present
- epileptiform events (scn1lab−/− larvae [1]; early treatment schedule: dechorionated at 1 dpf, exposed to allicin at MTC for 4 days, LFP at 5 dpf (FIG. 2F)): significantly reduced to similar levels as observed in wild-type and heterozygous siblings
- typical symptoms of epilepsy: abnormal brain electrical discharges (scn1lab−/− larvae [1]; exposed during the 0-3 dpf period to non-toxic concentrations, measured at 5 dpf (data not shown)): are not present
- abnormal locomotor behavior (hyperlocomotor activity) compared to VHC treated controls (scn1lab−/− larvae [2]; anti-seizure treatment schedule: allicin at MTC from 3 dpf onwards (after seizure onset), measured at 5 dpf (FIG. 2B)): did not demonstrate significant decreases; also recorded: rescue effect is not present
- abnormal hyperactive behavior compared to VHC controls (scn1lab−/− larvae [2]; early treatment schedule: dechorionated at 1 dpf, exposed to allicin at MTC for 4 days, measured at 5 dpf (FIG. 2E)): highly significant decreases
- typical symptoms of epilepsy: hyperlocomotor activity (scn1lab−/− larvae [2]; exposed during the 0-3 dpf period to non-toxic concentrations, measured at 5 dpf): are not present
